The source of these data is EP2951180B1, “2,6,7,8 SUBSTITUTED PURINES AS HDM2 INHIBITORS” (Merck Sharp & Dohme Corp., priority 2013, dated 2014).

For the first test, the target named is T1, HDM2 (Homo sapiens, UniProt Q00987).
T1 construct: Thioredoxin (N); made in house; host or cells: E. coli strain BL21(DE3)Rosetta
T1 sequence (Q00987 17-125): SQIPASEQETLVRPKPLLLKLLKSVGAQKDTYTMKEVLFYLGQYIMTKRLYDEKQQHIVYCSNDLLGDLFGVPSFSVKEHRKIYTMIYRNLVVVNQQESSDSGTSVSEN
As to the kind of experiment: HDM2 FRET assay (inhibition of binding of FITC labeled p53-pocket peptide to HDM2). Conditions: 0.5 nM HDM2 (residues 17 to 125), 3nM peptide, two hour incubation at room temperature; read-out: FRET IC50. The method, boiled down:
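Final: 0.5 nM His-HDM2, 3 nM FITC peptide, 0.25 nM Tb anti-His Ab; PBS, 0.01% BSA, 0.01% Tween-20; 0.1% DMSO.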
In the case of `Cc1nnc([C@@H]2COCCN2c2nc3nc(-c4noc(=O)[nH]4)nc(-c4cccc(Cl)c4)c3n2C[C@H]2CC[C@H](C)CC2)o1` [Example 16.138, 3-{6-(3-chlorophenyl)-7-[(trans-4-methylcyclohexyl)methyl]-8-[(3S)-3-(5-methyl-1,3,4-oxadiazol-2-yl)morpholin-4-yl]-7H-purin-2-yl}-1,2,4-oxadiazol-5(4H)-one], the IC50 (as a rule, the concentration that inhibits the measured activity by half) is 79.1 nM.
The same measure, in the same setting: to `CCNC(=O)c1nc(N[C@H](C)C2CCC2)c2c(n1)nc(N1CCOC[C@H]1c1ccccc1)n2C[C@H]1CC[C@H](C)CC1` [Example 12.17, 6-{[(1R)-1-cyclobutylethyl]amino}-N-ethyl-7-[(trans-4-methylcyclohexyl)methyl]-8-[(3R)-3-phenylmorpholin-4-yl]-7H-purine-2-carboxamide] belongs 1.63 nM; to `CC(C)c1ccnc(-c2nc3nc(-c4noc(=O)[nH]4)nc(-c4cccc(Cl)c4)c3n2C[C@H]2CC[C@H](C)CC2)c1` [Example 16.16, 3-{6-(3-chlorophenyl)-7-[(trans-4-methylcyclohexyl)methyl]-8-[4-(1-methylethyl)pyridin-2-yl]-7H-purin-2-yl}-1,2,4-oxadiazol-5(4H)-one], 11.4 nM; to `C[C@H]1CC[C@H](Cn2c(N3CCOC[C@H]3c3ccncc3)nc3nc(-c4noc(=O)[nH]4)nc(-c4cccc(Cl)c4)c32)CC1` [Example 16.96, 3-{6-(3-chlorophenyl)-7-[(trans-4-methylcyclohexyl)methyl]-8-[(3R)-3-pyridin-4-ylmorpholin-4-yl]-7H-purin-2-yl}-1,2,4-oxadiazol-5(4H)-one], 3.29 nM.
Still for that read-out and setting: then `COc1ccc(C)cc1-c1nc2nc(C(=O)O)nc(N[C@H](C)C3CCC3)c2n1C[C@H]1CC[C@H](C)CC1` [Example 15.13, 6-{[(1R)-1-cyclobutylethyl]amino}-8-(2-methoxy-5-methylphenyl)-7-[(trans-4-methylcyclohexyl)methyl]-7H-purine-2-carboxylic acid], with 4.96 nM.
As to `CC1CCCC(c2nc(-c3n[nH]c(=O)o3)nc3nc(N4CCOC[C@H]4c4ccccc4)n(C[C@H]4CC[C@H](C)CC4)c23)C1` (stereo partly drawn) [Example 16.170, 5-{6-(3-methylcyclohexyl)-7-[(trans-4-methylcyclohexyl)methyl]-8-[(3R)-3-phenylmorpholin-4-yl]-7H-purin-2-yl} - 1,3,4-oxadiazol-2(3H)-one], the IC50 is 8.3 nM.

Staying with this test, now noted: Table 6; read-out: FRET IC50.
On to `Cc1cccc(-c2nc3nc(C(=O)O)nc(N4CCCC4C(C)C)c3n2Cc2ccc(C(F)(F)F)cc2)c1` (stereo not shown) [Example 6.85, 6-[2-(1-methylethyl)pyrrolidin-1-yl]-8-(3-methylphenyl)-7-[4-(trifluoromethyl)benzy 1]-7H-purine-2-carboxylic acid], for which the concentration for half-maximal inhibition (IC50) amounted to 723 nM.
Take `Cc1cccc(-c2nc3nc(C(=O)O)nc(NC4CCC(C)CC4)c3n2Cc2ccc(C(F)(F)F)cc2)c1` (stereo not shown) [Example 6.19, 6-[(4-methylcyclohexyl)amino]-8-(3-methylphenyl)-7-[4-(trifluoromethyl)benzyl]-7H-purine-2-carboxylic acid]: the IC50 came out at 869 nM.
Same read-out and setting: to `Cc1cccc(-c2nc3nc(C(=O)O)nc(NC(C)C4CC4C)c3n2Cc2ccc(C(F)(F)F)cc2)c1` (stereo not shown) [Example 6.37, 6-{[1-(2-methylcyclopropyl)ethyl]amino}-8-(3-methylphenyl)-7-[4-(trifluoromethyl)benzyl]-7H-purine-2-carboxylic acid] belongs 360 nM.

The test is the same for the next values; noted with them: Table 9; read-out: FRET IC50.
Consider `C[C@@H](Nc1nc(C(=O)O)nc2nc(N(C)Cc3ccccc3)n(Cc3ccc(C(F)(F)F)cc3)c12)C1CCC1` [Example 9.14, 8-[benzyl(methyl)amino]-6-{[(1R)-1-cyclobutylethyl]amino}-7-[4-(trifluoromethyl)benzyl]-7H-purine-2-carboxylic acid], for which the IC50 is 5.62 nM.
The same measure, in the same setting: to `C[C@@H](Nc1nc(C(=O)O)nc2nc(N3CCOC[C@@H]3c3ccccc3)n(Cc3ccc(C(F)(F)F)cc3)c12)C1CCC1` [Example 9.51, 6-{[(1R)-1-cyclobutylethyl]amino}-8-[(3S)-3-phenylmorpholin-4-yl]-7-[4-(trifluoromethyl)benzyl]-7H-purine-2-carboxylic acid] belongs 120 nM; to `CC(c1cccc(F)c1)N(C)c1nc2nc(-c3noc(=O)[nH]3)nc(N[C@H](C)C3CCC3)c2n1Cc1ccc(C(F)(F)F)c(F)c1` (stereo partly drawn) [Example 9.73, 3-(6-{[(1R)-1-cyclobutylethyl]amino}-8-{[1-(3-fluorophenyl)ethyl](methyl)amino}-7-[3-fluoro-4-(trifluoromethyl)benzyl]-7H-purin-2-yl)-1,2,4-oxadiazol-5(4H)-one], 16.2 nM; to `C[C@@H](Nc1nc2nc(C(=O)O)nc(N[C@H](C)C3CCC3)c2n1Cc1ccc(C(F)(F)F)cc1)c1ccccc1` [Example 9.17], 15.8 nM.
Take `C[C@@H](Nc1nc(C(=O)O)nc2nc(N3CCOC[C@@H]3C)n(Cc3ccc(C(F)(F)F)cc3)c12)C1CCC1` [Example 9.32, 6-{[(1R)-1-cyclobutylethyl]amino}-8-[(3S)-3-methylmorpholin-4-yl]-7-[4-(trifluoromethyl)benzyl]-7H-purine-2-carboxylic acid]: the IC50 was 15.2 nM.
On the same count and under the same terms, then `CC(C)CC1COCCN1c1nc2nc(-c3noc(=O)[nH]3)nc(N[C@H](C)C3CCC3)c2n1Cc1ccc(C(F)(F)F)cc1` (stereo partly drawn) [Example 9.101, 3-(6-{[(1R)-1-cyclobutylethyl]amino}-8-[3-(2-methylpropyl)morpholin-4-yl]-7-[4-(trifluoromethyl)benzyl]-7H-purin-2-yl)-1,2,4-oxadiazol-5(4H)-one], with 9.8 nM; and `C[C@@H](CO)Nc1nc2nc(C(=O)O)nc(N[C@H](C)C3CCC3)c2n1Cc1ccc(C(F)(F)F)cc1` [Example 9.10, 6-{[(1R)-1-cyclobutylethyl]amino}-8-{[(1S)-2-hydroxy-1-methylethyl]amino}-7-[4-(trifluoromethyl)benzyl]-7H-purine-2-carboxylic acid], with 85.9 nM.

The test is the same for the next values; noted with them: Table 11; read-out: FRET IC50.
For the compound `C[C@@H](Nc1nc(C(=O)O)nc2nc(N3CCCCC3c3ccccn3)n(C[C@H]3CC[C@H](C)CC3)c12)C1CCC1` (stereo partly drawn) [Example 11.21, 6-{[(1R)-1-cyclobutylethyl]amino}-7-[(trans-4-methylcyclohexyl)methyl]-8-(2-pyridin-2-ylpiperidin-1-yl)-7H-purine-2-carboxylic acid], the IC50 is 2.72 nM.
Same read-out and setting: to `COC(C)(C)C1CCCN1c1nc2nc(-c3noc(=O)[nH]3)nc(N[C@H](C)C3CCC3)c2n1C[C@H]1CC[C@H](C)CC1` (stereo partly drawn) [Example 11.107, 3-(6-{[(1R)-1-cyclobutylethyl]amino}-8-[2-(1-methoxy-1-methylethyl)pyrrolidin-1-yl]-7-[(trans-4-methylcyclohexyl)methyl]-7H-purin-2-yl)-1,2,4-oxadiazol-5(2H)-one] belongs 0.507 nM.
In the case of `C[C@@H](Nc1nc(-c2noc(=O)[nH]2)nc2nc(N3CCOC[C@H]3c3ccccc3)n(C[C@H]3CC[C@H](C)CC3)c12)C(F)(F)F` [Example 11.53, 3-(7-[(trans-4-methylcyclohexyl)methyl]-8-[(3R)-3-phenylmorpholin-4-yl]-6-{[(1R)-2,2,2-trifluoro-1-methylethyl]amino}-7H-purin-2-yl)-1,2,4-oxadiazol-5(4H)-one], the IC50 stood at 4.68 nM.
Still for that read-out and setting: then `C[C@@H](Nc1nc(-c2noc(=O)[nH]2)nc2nc(N3CCCC3CS(C)(=O)=O)n(C[C@H]3CC[C@H](C)CC3)c12)C1CCC1` (stereo partly drawn) [Example 11.153, 3-(6-{[(1R)-1-cyclobutylethyl]amino}-7-[(trans-4-methylcyclohexyl)methyl]-8-{2-[(methylsulfonyl)methyl]pyrrolidin-1-yl}-7H-purin-2-yl)-1,2,4-oxadiazol-5(4H)-one], with 65.6 nM; and `C[C@@H](Nc1nc(C(=O)O)nc2nc(N3CCCC4CCCCC43)n(C[C@H]3CC[C@H](C)CC3)c12)C1CCC1` (stereo partly drawn) [Example 11.23, 6-{[(1R)-1-cyclobutylethyl]amino}-7-[(trans-4-methylcyclohexyl)methyl]-8-(octahydroquinolin-1(2H)-yl)-7H-purine-2-carboxylic acid], with 3.11 nM.

Still in this test, the particulars now being: Table 18; read-out: FRET IC50.
`CC[C@H]1CC[C@H](Cn2c(N3CCOC[C@H]3c3ccccc3)nc3nc(C(=O)O)nc(N[C@H](C)C4CCC4)c32)CC1` [Example 18.21, 6-{[(1R)-1-cyclobutylethyl]amino}-7-[(trans-4-ethylcyclohexyl)methyl]-8-[(3R)-3-phenylmorpholin-4-yl]-7H-purine-2-carboxylic acid]: the IC50 was 0.548 nM.

Still in this test, the particulars now being: Table 22; read-out: FRET IC50.
For `C[C@@H](Nc1nc(-c2noc(=O)[nH]2)nc2nc(C(C)(O)c3ccncc3)n(C[C@H]3CC[C@H](C)CC3)c12)C1CCC1` (stereo partly drawn) [Example 22.36, 3-(6-{[(1R)-1-cyclobutylethyl]amino}-8-(1-hydroxy-1-pyridin-4-ylethyl)-7-[(trans-4-methylcyclohexyl)methyl] -7H-purin-2-yl)-1,2,4-oxadiazol-5(4H)-one], the IC50 came out at 13.6 nM.
On the same count and under the same terms, then `C[C@@H](Nc1nc(-c2noc(=O)[nH]2)nc2nc(C(C)(O)C(C)(C)C)n(C[C@H]3CC[C@H](C)CC3)c12)C1CCC1` (stereo partly drawn) [Example 22.2, 3-(6-{[(1R)-1-cyclobutylethyl]amino}-8-(1-hydroxy-1,2,2-trimethylpropyl)-7-[(trans-4-methylcyclohexyl)methyl]-7H-purin-2-yl)-1,2,4-oxadiazol-5(4H)-one], with 10.6 nM.

Still in this test, the particulars now being: Table 23; read-out: FRET IC50.
As for `Cc1ocnc1C1(c2nc3nc(-c4noc(=O)[nH]4)nc(-c4cccc(Cl)c4)c3n2C[C@H]2CC[C@H](C)CC2)CC1` [Example 23.101, 3-{6-(3-chlorophenyl)-7-[(trans-4-methylcyclohexyl)methyl]-8-[1-(5-methyl-1,3-oxazol-4-yl)cyclopropyl]-7H-purin-2-yl}-1,2,4-oxadiazol-5(4H)-one], the IC50 worked out at 30.1 nM.
